Laboratory results taken from ChEMBL document CHEMBL1130931, “Synthesis and structure-activity relationships of 7-(2-aminoalkyl)morpholinoquinolones as anti-Helicobacter pylori agents” (1998).
Converted amounts (≈) assume the structure as drawn.

Experiments:
Assay type in all cases: functional
Gerbillinae [1] = test: The ratio of the number of Mongolian gerbils in which Helicobacter pylori was not detected to that of Mongolian gerbils tested (percent) was represented as clearance rate
Helicobacter pylori = test: In vitro minimum inhibitory concentration against growth of Helicobacter pylori ATCC 43504.
Gerbillinae [2] = test: The ratio of the number of Mongolian gerbils in which Helicobacter pylori was not detected to that of Mongolian gerbils tested (percent) was represented as clearance rate at 1 mg/kg dose
Gerbillinae [3] = test: The ratio of the number of Mongolian gerbils in which Helicobacter pylori was not detected to that of Mongolian gerbils tested (percent) was represented as clearance rate at 0.3 mg/kg dose
Gerbillinae [4] = test: The ratio of the number of Mongolian gerbils in which Helicobacter pylori was not detected to that of Mongolian gerbils tested (percent) was represented as clearance rate at 30 mg/kg dose
Gerbillinae [5] = test: The ratio of the number of Mongolian gerbils in which Helicobacter pylori was not detected to that of Mongolian gerbils tested (percent) was represented as clearance rate at 10 mg/kg dose
Gerbillinae [6] = test: The ratio of the number of Mongolian gerbils in which Helicobacter pylori was not detected to that of Mongolian gerbils tested (percent) was represented as clearance rate at 3 mg/kg dose

SMILES | MIC (Helicobacter pylori) | further results
C[C@@H]1CN(c2c(F)c(N)c3c(=O)c(C(=O)O)cn(C4CC4)c3c2F)C[C@H](C)N1 [SPARFLOXACIN] | 0.2 µg/mL (≈ 0.51 µM) | Ratio (Gerbillinae [1]): 0%
NCCC1CN(c2c(F)cc3c(=O)c(C(=O)O)cn(C4CC4)c3c2F)CCO1 (configuration not stated) | 0.2 µg/mL (≈ 0.508 µM) | 
NC1CCN(c2nc3c(cc2F)c(=O)c(C(=O)O)cn3-c2ccc(F)cc2F)C1 (configuration not stated) [TOSUFLOXACIN] | 0.39 µg/mL (≈ 0.965 µM) | Ratio (Gerbillinae [1]): 0%
COc1c(N2CCO[C@H](CN(C)C)C2)c(F)cc2c(=O)c(C(=O)O)cn(C3CC3)c12 | 0.39 µg/mL (≈ 0.93 µM) | 
COc1c(N2CCO[C@@H](CN(C)C)C2)c(F)cc2c(=O)c(C(=O)O)cn(C3CC3)c12 | 0.012 µg/mL (≈ 0.0286 µM) | Ratio (Gerbillinae [2]): 100%; Ratio (Gerbillinae [3]): 0%
CCNCC1CN(c2c(F)cc3c(=O)c(C(=O)O)cn(C4CC4)c3c2F)CCO1 (configuration not stated) | 0.05 µg/mL (≈ 0.123 µM) | 
CC1(C)S[C@@H]2[C@H](NC(=O)[C@H](N)c3ccc(O)cc3)C(=O)N2[C@H]1C(=O)O [AMOXICILLIN] | 0.025 µg/mL (≈ 0.0684 µM) | 
CNCC1CN(c2c(F)cc3c(=O)c(C(=O)O)cn(C4CC4)c3c2F)CCO1 (configuration not stated) | 0.05 µg/mL (≈ 0.127 µM) | 
CN(C)CC1CN(c2c(F)cc3c(=O)c(C(=O)O)cn(C4CC4)c3c2F)CCO1 (configuration not stated) | 0.025 µg/mL (≈ 0.0614 µM) | 
COc1c(N2CCOC(CN(C)C)C2)c(F)cc2c(=O)c(C(=O)O)cn(C3CC3)c12 (configuration not stated) | 0.025 µg/mL (≈ 0.0596 µM) | 
CC[C@H]1OC(=O)[C@H](C)[C@@H](O[C@H]2C[C@@](C)(OC)[C@@H](O)[C@H](C)O2)[C@H](C)[C@@H](O[C@@H]2O[C@H](C)C[C@H](N(C)C)[C@H]2O)[C@](C)(OC)C[C@@H](C)C(=O)[C@H](C)[C@@H](O)[C@]1(C)O [CLARITHROMYCIN] | 0.025 µg/mL (≈ 0.0334 µM) | Ratio (Gerbillinae [4]): 100%; Ratio (Gerbillinae [5]): 0%
NCC1CN(c2c(F)cc3c(=O)c(C(=O)O)cn(C4CC4)c3c2F)CCO1 (configuration not stated) | 0.05 µg/mL (≈ 0.132 µM) | Ratio (Gerbillinae [1]): 80%
CC(=O)NCC1CN(c2c(F)cc3c(=O)c(C(=O)O)cn(C4CC4)c3c2F)CCO1 (configuration not stated) | 0.78 µg/mL (≈ 1.85 µM) | 
C[C@H]1COc2c(N3CCN(C)CC3)c(F)cc3c(=O)c(C(=O)O)cn1c23.C[C@H]1COc2c(N3CCN(C)CC3)c(F)cc3c(=O)c(C(=O)O)cn1c23.O [LEVOFLOXACIN] | 0.2 µg/mL | Ratio (Gerbillinae [6]): 0%; Ratio (Gerbillinae [5]): 60%
CCCNCC1CN(c2c(F)cc3c(=O)c(C(=O)O)cn(C4CC4)c3c2F)CCO1 (configuration not stated) | 0.39 µg/mL (≈ 0.925 µM) | 
CN(C)CC1CN(c2cc3c(cc2F)c(=O)c(C(=O)O)cn3C2CC2)CCO1 (configuration not stated) | 0.1 µg/mL (≈ 0.257 µM) | 
CN(C)CC1CN(c2c(F)cc3c(=O)c(C(=O)O)cn(C4CC4)c3c2Cl)CCO1 (configuration not stated) | 0.05 µg/mL (≈ 0.118 µM) | 
CCN(CC)CC1CN(c2c(F)cc3c(=O)c(C(=O)O)cn(C4CC4)c3c2F)CCO1 (configuration not stated) | 0.2 µg/mL (≈ 0.459 µM) | 
